Consider 18 compounds from patent publication US9394282B2, “Pyrazole carboxamides as Janus kinase inhibitors” (Merck Sharp & Dohme Corp., priority 2011, dated 2016).

The target of one assay is JAK1 (Homo sapiens (Human), UniProt P23458). Kind of assay: Jak biochemical HTRF assay, JAK1. The note with it: recombinant purified GST-tagged catalytic domain; HTRF format; [ATP] 31.8 μM. The source says: (§1) Jak Biochemical HTRF Assay Protocol
(§2) Subsequent reagent additions employed an Agilent Bravo.

Another assay addresses JAK2 (Homo sapiens (Human), UniProt O60674). Kind of assay: Jak biochemical HTRF assay, JAK2. The settings on record: recombinant purified GST-tagged catalytic domain; HTRF format; [ATP] 8.5 μM.
Excerpt: as §1, §2
For orientation: Time-resolved FRET reads energy transfer from a long-lived donor to a nearby acceptor.

Chain of JAK2 (O60674 849-1124): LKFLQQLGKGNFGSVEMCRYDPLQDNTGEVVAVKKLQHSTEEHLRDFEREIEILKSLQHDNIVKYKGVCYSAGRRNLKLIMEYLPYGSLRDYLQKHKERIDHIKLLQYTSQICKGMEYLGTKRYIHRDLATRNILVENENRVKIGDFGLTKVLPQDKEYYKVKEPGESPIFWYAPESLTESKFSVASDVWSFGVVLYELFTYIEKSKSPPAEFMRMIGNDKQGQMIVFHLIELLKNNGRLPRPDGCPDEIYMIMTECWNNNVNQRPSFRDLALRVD
Chain of JAK1 (P23458 875-1153): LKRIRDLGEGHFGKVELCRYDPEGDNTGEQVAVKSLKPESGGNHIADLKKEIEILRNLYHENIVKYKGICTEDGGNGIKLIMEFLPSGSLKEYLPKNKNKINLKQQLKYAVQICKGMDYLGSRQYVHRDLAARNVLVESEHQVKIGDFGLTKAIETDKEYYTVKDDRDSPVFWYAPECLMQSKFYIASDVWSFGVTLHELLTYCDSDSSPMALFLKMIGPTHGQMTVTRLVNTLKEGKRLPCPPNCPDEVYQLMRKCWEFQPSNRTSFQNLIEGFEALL

Regarding `N#C[C@@H]1CN(C(=O)OCCCc2ccccc2)CC[C@H]1n1cc(C(N)=O)c(Nc2ccc(F)cc2)n1` (racemic) [Example 5-3, 3-phenylpropyl (3R,4R and 3S,4S)-4-{4-carbamoyl-3-[(4-fluorophenyl)amino]-1H-pyrazol-1-yl}-3-cyanopiperidine-1-carboxylate], the IC50 (usually the concentration that inhibits the measured activity by half) at JAK1 stood at 44 nM; on JAK2, 1010 nM.
On the same counts, the results for `CC1(c2ccc(Nc3nn([C@H]4COCC[C@@H]4C#N)cc3C(N)=O)cc2)COC1` (single isomer, unassigned) [Example 9-24, 1-[(3R,4S or 3S,4R)-4-cyanotetrahydro-2H-pyran-3-yl]-3-{[4-(3-methyloxetan-3-yl)phenyl]amino}-1H-pyrazole-4-carboxamide] are 0.1 nM and 0.6 nM.
The corresponding values for `N#C[C@@H]1CCN(Cc2ccc(F)cn2)C[C@H]1n1cc(C(N)=O)c(Nc2ccc(F)cc2)n1` (racemic) [Example 6-16, 1-{(3S,4R and 3R,4S)-4-cyano-1-[(5-fluoropyridin-2-yl)methyl]piperidin-3-yl}-3-[(4-fluorophenyl)amino]-1H-pyrazole-4-carboxamide] are 0.7 nM and 14 nM.
On the same counts, the results for `Cn1nccc1CN1CC[C@@H](C#N)[C@H](n2cc(C(N)=O)c(Nc3ccc(F)cc3)n2)C1` (racemic) [Example 6-13, 1-{(3S,4R and 3R,4S)-4-cyano-1-[(1-methyl-1H-pyrazol-5-yl)methyl]piperidin-3-yl}-3-[(4-fluorophenyl)amino]-1H-pyrazole-4-carboxamide] are 2 nM and 20 nM.
Consider `N#C[C@@H]1CN(C(=O)OC2Cc3ccccc3C2)CC[C@H]1n1cc(C(N)=O)c(Nc2ccc(F)cc2)n1` (racemic) [Example 5-37, 2,3-dihydro-1H-inden-2-yl (3R,4R and 3S,4S)-4-{4-carbamoyl-3-[(4-fluorophenyl)amino]-1H-pyrazol-1-yl}-3-cyanopiperidine-1-carboxylate], for which the IC50 on JAK1 is 54 nM; at JAK2 it was > 1500 nM.
The corresponding values for `CCOC(=O)N1CC[C@@H](C#N)C(n2cc(C(N)=O)c(Nc3ccc(F)cc3)n2)C1` (mixture of isomers) [Example 5-76, ethyl (3S,4R and 3R,4S)-3-{4-carbamoyl-3-[(4-fluorophenyl)ainino]-1H-pyrazol-1-yl}-4-cyanopiperidine-1-carboxylate] are 5 nM and 62 nM.
On the same counts, the results for `N#C[C@@H]1CN(C(=O)OCCCc2ccccc2)CC[C@@H]1n1cc(C(N)=O)c(Nc2ccc(F)cc2)n1` (racemic) [Example 5-55, 3-phenylpropyl (3R,4S and 3S,4R)-4-{4-carbamoyl-3-[(4-fluorophenyl)amino]-1H-pyrazol-1-yl}-3-cyanopiperidine-1-carboxylate] are 350 nM and > 1500 nM.
For the compound `N#C[C@@H]1CCN(Cc2cccnn2)CC1n1cc(C(N)=O)c(Nc2ccc(F)cc2)n1` (mixture of isomers) [Example 6-1, 1-[(3S,4R and 3R,4S)-4-Cyano-1-(pyridazin-3-ylmethyl)piperidin-3-yl]-3-[(4-fluorophenyl)amino]-1H-pyrazole-4-carboxamide], the figures for the IC50 at JAK1 and on JAK2 were 6 nM and 77 nM, respectively.
As to `N#C[C@@H]1CCN(Cc2cscn2)C[C@H]1n1cc(C(N)=O)c(Nc2ccc(F)cc2)n1` (racemic) [Example 6-6, 1-[(3S,4R and 3R,4S)-4-cyano-1-(1,3-thiazol-4-ylmethyl)piperidin-3-yl]-3-[(4-fluorophenyl)amino]-1H-pyrazole-4-carboxamide], the concentration for half-maximal inhibition (IC50) at JAK1 is 2 nM; at JAK2, 19 nM.
On the same counts, the results for `N#C[C@@H]1CN(C(=O)OCCF)CC[C@@H]1n1cc(C(N)=O)c(Nc2ccc(F)cc2)n1` (racemic) [Example 5-58, 2-fluoroethyl (3R,4S and 3S,4R)-4-{4-carbamoyl-3-[(4-fluorophenyl)amino]-1H-pyrazol-1-yl}-3-cyanopiperidine-1-carboxylate] are 102 nM and 1120 nM.
For the compound `Cn1ccc(CN2CC[C@@H](C#N)[C@H](n3cc(C(N)=O)c(Nc4ccc(F)cc4)n3)C2)n1` (racemic) [Example 6-5, 1-{(3S,4R and 3R,4S)-4-cyano-1-[(1-methyl-1H-pyrazol-3-yl)methyl]piperidin-3-yl}-3-[(4-fluorophenyl)amino]-1H-pyrazole-4-carboxamide], the IC50 amounted to 2 nM at JAK1 and 14 nM at JAK2.
On the same counts, the results for `N#C[C@@H]1CN(C(=O)OCC(F)(F)CO)CC[C@@H]1n1cc(C(N)=O)c(Nc2ccc(F)cc2)n1` (racemic) [Example 5-67, 2,2-difluoro-3-hydroxypropyl (3R,4S and 3S,4R)-4-{4-carbamoyl-3-[(4-fluorophenyl)amino]-1H-pyrazol-1-yl}-3-cyanopiperidine-1-carboxylate] are 69 nM and 1200 nM.
Turning to `COCCOC(=O)N1CC[C@@H](n2cc(C(N)=O)c(Nc3ccc(F)cc3)n2)[C@H](C#N)C1` (racemic) [Example 5-29, 2-methoxyethyl (3R,4R and 3S,4S)-4-{4-carbamoyl-3-[(4-fluorophenyl)amino]-1H-pyrazol-1-yl}-3-cyanopiperidine-1-carboxylate], the IC50 on JAK1 was 9 nM; at JAK2, 202 nM.
In the case of `N#C[C@@H]1CN(C(=O)OC2Cc3ccccc3C2)CC[C@@H]1n1cc(C(N)=O)c(Nc2ccc(F)cc2)n1` (racemic) [Example 5-42, 2,3-dihydro-1H-inden-2-yl (3R,4S and 3S,4R)-4-{4-carbamoyl-3-[(4-fluorophenyl)amino]-1H-pyrazol-1-yl}-3-cyanopiperidine-1-carboxylate], the results for the IC50 on JAK1 and on JAK2 were 652 nM and > 1500 nM, respectively.
On the same counts, the results for `Cc1cc(CN2CC[C@@H](n3cc(C(N)=O)c(Nc4ccc(F)cc4)n3)[C@H](C#N)C2)no1` (racemic) [Example 6-33, 1-{(3R,4R and 3S,4S)-3-cyano-1-[(5-methylisoxazol-3-yl)methyl]piperidin-4-yl}-3-[(4-fluorophenyl)amino]-1H-pyrazole-4-carboxamide] are 7 nM and 92 nM.
The corresponding values for `CN(C)CC(C)(C)COC(=O)N1CC[C@@H](C#N)C(n2cc(C(N)=O)c(Nc3ccc(F)cc3)n2)C1` (mixture of isomers) [Example 5-75, 3-(dimethylamino)-2,2-dimethylpropyl (3S,4R and 3R,4S)-3-{4-carbamoyl-3-[(4-fluorophenyl)amino]-1H-pyrazol-1-yl}-4-cyanopiperidine-1-carboxylate] are 16 nM and 444 nM.
On to `CC1(COC(=O)N2CC[C@@H](C#N)C(n3cc(C(N)=O)c(Nc4ccc(F)cc4)n3)C2)CC1` (mixture of isomers) [Example 5-72, (1-methylcyclopropyl)methyl (3S,4R and 3R,4S)-3-{4-carbamoyl-3-[(4-fluorophenyl)amino]-1H-pyrazol-1-yl}-4-cyanopiperidine-1-carboxylate], for which the IC50 came out at 5 nM on JAK1 and 69 nM at JAK2.
Turning to `N#CCC1(COC(=O)N2CC[C@@H](C#N)C(n3cc(C(N)=O)c(Nc4ccc(F)cc4)n3)C2)CC1` (mixture of isomers) [Example 5-88, [1-(cyanomethyl)cyclopropyl]methyl (3S,4R and 3R,4S)-3-{4-carbamoyl-3-[(4-fluorophenyl)amino]-1H-pyrazol-1-yl}-4-cyanopiperidine-1-carboxylate], the IC50 worked out at 0.7 nM at JAK1 and 15 nM on JAK2.
